Results: patent US20230255953A1, “USE OF ROLUPERIDONE IN PREVENTING RELAPSE IN SCHIZOPHRENIA PATIENTS” (Minerva Neurosciences, Inc., priority 2022, published 2023)

Test system: patients with negative symptoms of schizophrenia
Assay: Integrated analysis of Studies #1 and #2 (pooled ITT): PANSS-derived scores (NSFS, total, positive and negative subscales), DB, OL and whole study
Format: in vivo, human
Set-up: key to NSFS Score change from Baseline, Median: change from Baseline in PANSS NSFS points; higher score = more severe
Settings: for NSFS Score change from Baseline, LS mean (SE) / NSFS Score change from Baseline, Mean (SD) / NSFS Score change from Baseline, Median / NSFS Score, Difference (95% CI) in LS mean (vs placebo) / PANSS Negative Subscale Score change from Baseline, LS mean (SE) / PANSS Negative Subscale Score change from Baseline, Mean (SD) / PANSS Negative Subscale Score change from Baseline, Median / PANSS Negative Subscale Score, Difference (95% CI) in LS mean (vs placebo) / PANSS Total Score change from Baseline, LS mean (SE) / PANSS Total Score change from Baseline, Mean (SD) / PANSS Total Score change from Baseline, Median / PANSS Total Score, Difference (95% CI) in LS mean (vs placebo): DB
Method: The primary integrated analysis of the efficacy of Roluperidone compared with placebo for the treatment of negative symptoms of schizophrenia is based on the change from Baseline in the PANSS Marder's negative symptoms factor score (in this document referred to as NSFS) to Week 12. Efficacy is also supported by the analysis of change from Baseline in the PSP Total score and the CGI-S to Week 12.
The PANSS was assessed at the time points described in Table 4.
The PANSS-derived endpoints used in these studies and the integrated analyses are described in Table 5A and a summary of the individual PANSS items used by physicians and clinicians to measure the severity of the symptoms in a schizophrenia patient is provided in Table 5B. The scale is divided into three parts, a positive scale, which provides a “PANSS positive subscore”, a negative scale, which provides a “PANSS negative subscore”, and general psychopathology scale. The sum of these three parts provides a PANSS total score, which ranges from 30 to 210 (where higher scores indicate more severe symptoms). (See Kay, S. R., et al. “The positive and negative syndrome scale (PANSS) for schizophrenia,” Schizophr Bulletin, 13(2), 261-276 (1987) and Gopal, S., et al. “Improvement of Negative Symptoms in Schizophrenia with Paliperidone Palmitate 1-Month and 3-Month Long-Acting Injectables: Results from a Phase 3 Non-Inferiority Study” Neuropsychiatric Disease and Treatment, 681-690, DOI: 10.2147/NDT.5226296, both of which are incorporated by reference.)
The Efficacy data from Study Nos. 1 and 2 were pooled. The majority of patients in the pooled ITT population completed the DB period (502 patients overall, 66.3%), with similar rates in each treatment group (placebo: 69.8%, 32 mg Roluperidone: 65.3%, and 64 mg Roluperidone: 63.8%) (Table 12). The majority (62.7%) of those who completed the DB period entered the OL period. The most common reason for discontinuation during the DB period among patients overall was withdrawal of consent (15.6%), followed by adverse events (7.3%) and lack of efficacy (5.4%) (Table 12). […] Approximately twice as many patients in the Roluperidone groups (32 mg: 8.5%; 64 mg: 9.1%) discontinued due to adverse events compared with patients in the placebo group (4.3%). More patients in the placebo group discontinued due to lack of efficacy (6.7%) than in the Roluperidone groups (32 mg: 4.4%; 64 mg: 5.1%). The low number of patients who discontinued due to lack of efficacy or withdrawal of consent probably reflects a low level of worsening of positive symptoms.
The integrated analysis supporting the efficacy of Roluperidone as a treatment for the negative symptoms of schizophrenia in adults is presented below.

## 1H-Isoindol-1-one,2-[ [1-[2-(4-fluorophenyl)-2-oxoethyl]-4-piperidinyl]methyl]-2,3-dihydro-, hydrochloride, hydrate (1:1:2) [Roluperidone]
32 mg, Week 12, pooled ITT
  PANSS positive subscale score, LS mean change from Baseline compared with placebo: −0.3
  PANSS total score, LS mean change from Baseline compared with placebo: −1.9
32 mg, responder analysis
  Patients with 20% Reduction in NSFS at Week 12, percent: 31%
  Patients with 20% Reduction in PANSS Total Score at Week 12, percent: 14%
32 mg, responder analysis, n/N
  Number of Patients with 20% Reduction in PANSS Total Score at Week 12: 24/167
  Number of Patients with 20% reduction in NSFS at Week 12: 51/167
64 mg, Week 2, pooled ITT
  NSFS Score change from Baseline, LS mean (SE): −1.4 (0.15)
  NSFS Score change from Baseline, Mean (SD): −1.4 (2.34)
  NSFS Score change from Baseline, Median: −1.0
  NSFS Score, Difference (95% CI) in LS mean (vs placebo): −0.4 (−0.8, −0.0)
  PANSS Negative Subscale Score change from Baseline, LS mean (SE): −1.4 (0.14)
  PANSS Negative Subscale Score change from Baseline, Mean (SD): −1.4 (2.28)
  PANSS Negative Subscale Score change from Baseline, Median: −1.0
  PANSS Negative Subscale Score, Difference (95% CI) in LS mean (vs placebo): −0.4
  PANSS Total Score change from Baseline, LS mean (SE): −2.2 (0.44)
  PANSS Total Score change from Baseline, Mean (SD): −2.2 (7.15)
  PANSS Total Score change from Baseline, Median: −2.0
  PANSS Total Score, Difference (95% CI) in LS mean (vs placebo): −0.9
  PANSS Positive Subscale Score change from Baseline, LS mean (SE): −0.1 (0.17)
  PANSS Positive Subscale Score change from Baseline, Mean (SD): −0.1 (2.85)
  PANSS Positive Subscale Score change from Baseline, Median: 0.0
  PANSS Positive Subscale Score, Difference (95% CI) in LS mean (vs placebo): −0.1
64 mg, Week 4, pooled ITT
  NSFS Score change from Baseline, LS mean (SE): −2.5 (0.19)
  NSFS Score change from Baseline, Mean (SD): −2.6 (2.73)
  NSFS Score change from Baseline, Median: −2.0
  NSFS Score, Difference (95% CI) in LS mean (vs placebo): −1.1
  PANSS Negative Subscale Score change from Baseline, LS mean (SE): −2.6 (0.19)
  PANSS Negative Subscale Score change from Baseline, Mean (SD): −2.8 (2.82)
  PANSS Negative Subscale Score change from Baseline, Median: −2.0
  PANSS Negative Subscale Score, Difference (95% CI) in LS mean (vs placebo): −1.2
  PANSS Total Score change from Baseline, LS mean (SE): −4.5 (0.52)
  PANSS Total Score change from Baseline, Mean (SD): −5.1 (7.16)
  PANSS Total Score change from Baseline, Median: −5.0
  PANSS Total Score, Difference (95% CI) in LS mean (vs placebo): −2.5
  PANSS Positive Subscale Score change from Baseline, LS mean (SE): −0.2 (0.18)
  PANSS Positive Subscale Score change from Baseline, Mean (SD): −0.4 (2.49)
  PANSS Positive Subscale Score change from Baseline, Median: −1.0
  PANSS Positive Subscale Score, Difference (95% CI) in LS mean (vs placebo): −0.5
64 mg, Week 8, pooled ITT
  NSFS Score change from Baseline, LS mean (SE): −3.4 (0.23)
  NSFS Score change from Baseline, Mean (SD): −3.6 (3.28)
  NSFS Score change from Baseline, Median: −3.0
  NSFS Score, Difference (95% CI) in LS mean (vs placebo): −1.2
  PANSS Negative Subscale Score change from Baseline, LS mean (SE): −3.7 (0.23)
  PANSS Negative Subscale Score change from Baseline, Mean (SD): −3.9 (3.27)
  PANSS Negative Subscale Score change from Baseline, Median: −3.0
  PANSS Negative Subscale Score, Difference (95% CI) in LS mean (vs placebo): −1.3
  PANSS Total Score change from Baseline, LS mean (SE): −5.7 (0.65)
  PANSS Total Score change from Baseline, Mean (SD): −6.8 (8.79)
  PANSS Total Score change from Baseline, Median: −6.0
  PANSS Total Score, Difference (95% CI) in LS mean (vs placebo): −2.5
  PANSS Positive Subscale Score change from Baseline, LS mean (SE): −0.3 (0.20)
  PANSS Positive Subscale Score change from Baseline, Mean (SD): −0.6 (2.61)
  PANSS Positive Subscale Score change from Baseline, Median: −1.0
  PANSS Positive Subscale Score, Difference (95% CI) in LS mean (vs placebo): −0.5
64 mg, Week 12, pooled ITT
  NSFS Score change from Baseline, LS mean (SE): −3.9 (0.26)
  NSFS Score change from Baseline, Mean (SD): −4.1 (3.64)
  NSFS Score change from Baseline, Median: −3.5
  NSFS Score, Difference (95% CI) in LS mean (vs placebo): −1.3
  PANSS Negative Subscale Score change from Baseline, LS mean (SE): −4.1 (0.27)
  PANSS Negative Subscale Score change from Baseline, Mean (SD): −4.4 (3.75)
  PANSS Negative Subscale Score change from Baseline, Median: −4.0
  PANSS Negative Subscale Score, Difference (95% CI) in LS mean (vs placebo): −1.3
  PANSS Total Score change from Baseline, LS mean (SE): −6.3 (0.70)
  PANSS Total Score change from Baseline, Mean (SD): −7.7 (9.43)
  PANSS Total Score change from Baseline, Median: −7.0
  PANSS Total Score, Difference (95% CI) in LS mean (vs placebo): −2.8
64 mg, Week 12, ITT
  NSFS Emotional Experience Score, Change from Baseline (LS Means [SEM]): −1.6 (0.13)
  NSFS Emotional Expression Score, Change from Baseline (LS Means [SEM]): −2.3 (0.16)
  NSFS, Change from Baseline (LS Means [SEM]): −3.9 (0.26)
  PANSS General Psychopathology Subscale, Change from Baseline (LS Means [SEM]): −2.2 (0.37)
  PANSS Negative Symptoms Subscale, Change from Baseline (LS Means [SEM]): −4.1 (0.27)
  PANSS Positive Symptoms Subscale, Change from Baseline (LS Means [SEM]): −0.2 (0.21)
  PANSS Total Score, Change from Baseline (LS Means [SEM]): −6.3 (0.70)
64 mg, Week 12, normal BMI (<25 kg/m^2) subgroup, pooled ITT
  NSFS, LS mean change from Baseline compared with placebo: −1.7
64 mg, Week 12, obese (≥30 kg/m^2) subgroup, pooled ITT
  NSFS, LS mean change from Baseline compared with placebo: −0.1
64 mg, Week 12, overweight BMI (25 to <30 kg/m^2) subgroup, pooled ITT
  NSFS, LS mean change from Baseline compared with placebo: −1.4
64 mg, Week 12, pooled
  Patients with high improvement in NSFS (magnitude of change >8): 13%
